Reference: patent EP3095787A1, “[…] ACTIVE COMPOUNDS AS DAG-LIPASE INHIBITORS” (Universiteit Leiden, priority 2015, dated 2016)
Entries after “also recorded” stand apart in the source; their conditions may differ.

Legend:
[1] = system: human PC3 cells; assay: Lipidomics in PC3 cells; format: cell-based; conditions: 4h at 37 °C in serum free medium
Method: To test the activity of inventive compound 25 in a human cell line, human PC3 cells (prostate cancer cell line) were used. The protocol for lipodomics in PC3 cells is given below. Before inhibitor treatment, the culture medium was removed and the cells were washed with warm (37 °C) serum free medium (3x). The cells were treated with vehicle (DMSO) or inhibitor for 4h at 37 °C in serum free medium. After 4h of incubation medium was removed and the cells were washed with cold (4°C) DPBS (3x) and subsequently suspended in DPBS and pelleted. The cell pellet metabolome was extracted and by MeOH/CHCl3 extraction and analysed by LCMS/MS of a triple quad mass spectometer (agilent). The concentration of the lipids was determined by comparison with spiked deuterated standards of the lipd species. […] This may indicate that downstream metabolic pathways of 2-AG signaling are also affected and that the biosynthesis of 2-AG is the rate-limiting step.

[2] = system: serine hydrolases; assay: Chemoproteomics with THL-biotin (MB108) and FP-biotin in mouse brain membrane proteome: other serine hydrolases; format: biochemical; conditions: 10 µM, 30 min
Method: Since, the human serine hydrolase family contains approximately 200 family members, the selectivity in brain proteome was examined in a broader and more detailed manner. […] Mouse brain proteome (500 μL, 2.0 mg/mL) membrane or soluble fraction was incubated with vehicle (DMSO) or inhibitor (10 μM) in DMSO for 30 minutes at rt. The proteome was labeled with MB108 (2.5 μM, 30 minutes, rt) or FP-Biotin (5 μM, 30 minutes, 37 °C). Subsequently the labeling reaction was quenched and excess probe was removed by chloroform methanol precipitation. Precipitated proteome was suspended in 500 μL 6M Urea/25 mM ammonium bicarbonate and allowed to incubate for 15 minutes. 5 μL (1 M DTT) was added and the mixture was heated to 65 °C for 15 minutes. […] The sample was diluted with 6 mL PBS. 100 μL of 50% slurry of Avidin-Agarose from egg white (Sigma-Aldrich) was washed with PBS and added to the proteome sample. The beads were incubated with the proteome > 2h. The beads were isolated by centrifugation and washed with 0.5% (wt/vol) SDS and PBS (3x). […] Tryptic peptides were analyzed on a Surveyor nanoLC system (Thermo) hyphenated to a LTQ-Orbitrap mass spectrometer (Thermo). […] Fragmented precursor ions that were measured twice within 10 s were dynamically excluded for 60 s and ions with z < 2 or unassigned were not analyzed. […]

Cc1ccc(-c2cnc3nc(C(=O)CCCCCc4ccccc4)oc3c2)cc1 [Compound 25, 1-(6-(p-Tolyl)oxazolo[4,5-b]pyridin-2-yl)-6-phenylhexan-1-one]
2-AG levels [1]: reduced 2-AG levels | arachidonic acid levels [1]: reduced | substrate levels of DAGL [1]: no change | labeling of other serine hydrolases [2]: no other targets were detected; also recorded: not of any other serine hydrolase identified
